{"source": "patent US20130183323A1", "about": "“TARGETED ANTIBIOTIC AND ANTIMICROBIAL TREATMENTS FOR PERSONALIZED ADMINISTRATION” (priority 2011, published 2013)", "test_in_all_cases": "minimum inhibition concentration (MIC) for tetracycline", "format_in_all_cases": "cell-based", "settings_in_all_cases": "tetracycline resistant isolate from aquaculture environment", "key": {"Enterococcus sp. 17fT4": {"tested_on": "Enterococcus sp. 17fT4", "procedure": "(§1) Study 1. The variability of antibiotic resistant (ART) bacteria in responding to drug treatment was evaluated using tetracycline resistant isolates in brain heart infusion (BHI) broth. […] All strains were isolated from aquaculture environment. The bacteria in different titer were grown in BHI with different concentration of tetracycline conjugated to antibody against Enterococcus."}, "Enterococcus sp. 18fT3": {"tested_on": "Enterococcus sp. 18fT3", "procedure": "as §1"}, "[1]": {"tested_on": "Plesiomonas shigelloides 17iT21", "procedure": "as §1"}}, "data": [{"smiles": "CN(C)[C@@H]1C(O)=C(C(N)=O)C(=O)[C@@]2(O)C(O)=C3C(=O)c4c(O)cccc4[C@@](C)(O)[C@H]3C[C@@H]12", "note": "[tetracycline]", "values": [{"measurement": "MIC", "setting": "Enterococcus sp. 17fT4", "value": 128, "unit": "µg/mL"}, {"measurement": "MIC", "setting": "Enterococcus sp. 18fT3", "value": 512, "unit": "µg/mL"}, {"measurement": "MIC", "setting": "[1]", "value": 64, "unit": "µg/mL"}]}]}
